Patent US20250000888A1, “METHODS OF TREATING MYELODYSPLASTIC SYNDROMES WITH DECITABINE AND CEDAZURIDINE” (priority 2021, published 2025)
Read-outs that look alike come from different tables or passages of the source.

Tests used:
[1] = test system: MDS patients; conditions: intention-to-treat; 15 mg/m^2 IV over 3 hours, every 8 hours for 3 days; BSC 14.9; cited from earlier work
[2] = test system: LINE-1 (long interspersed nuclear element-1) methylation; experiment: Phase 3 trial pharmacodynamics: DNA demethylation by % LINE-1 methylation analysis; assay type: in vivo, human
[3] = Phase 3 randomized crossover trial: decitabine total exposure over 5 days (AUC) and plasma pharmacokinetics; assay type: in vivo, human; conditions: for AUC(0-t): human, plasma, intravenous, 20 mg/m^2/d, read-out: 5-Day Decitabine AUC0-24 LSM
Text: A total of 118 patients was planned for this analysis to provide 90% power at the statistical significance level of 0.05, presuming the true ratio of geometric means is 1.0, the intrapatient coefficient of variation (CV) on an unlogged scale is 0.55, and the 90% confidence interval (CI) equivalence limits for the ratio of geometric means are 0.8 and 1.25. Assuming that 10% of patients would not be evaluable, 132 patients were planned to be randomized.
At least one of either day 1 or 5 decitabine AUC0-24 measurement during the IV decitabine cycle was required to be evaluable. […] Descriptive statistics were calculated for pharmacokinetic values.
Effects of the sequence and cycle were evaluated.

[4] = test system: patients with MDS or CMML
Procedure: Each treatment was given for the first 5 consecutive days of a 28-day cycle. […] Consistent with standard clinical care with parenteral DNMTi, cycles could be delayed or doses reduced if judged necessary for hematologic or nonhematologic recovery.
Efficacy and safety endpoints were calculated using all data through final cutoff.

[5] = test system: MDS patients; conditions: cited from earlier work; for Median survival: previous reports in clinical trials; for Overall response rate: reported in clinical studies
[6] = test system: intermediate or high-risk MDS patients age 60 or older; conditions: low-dose decitabine IV; BSC 8.5; cited from earlier work
[7] = test system: patients with MDS; conditions: BSC arm 12; cited from earlier work

Nc1ncn([C@H]2C[C@H](O)[C@@H](CO)O2)c(=O)n1 [IV decitabine, 5-aza-2′-deoxycytidine]
Median survival [1]: 14.0 months | Max. % LINE-1 Demethylation LSM ([2]; Cycle 1): 14.019% | Max. % LINE-1 Demethylation LSM ([2]; Cycle 2): 11.968% | Peak concentrations, IV vs oral administration ([3]; FIG. 2A): higher after IV vs oral | Time at which peak decitabine plasma concentrations were detected ([3]; after oral and IV therapy, except day 5 IV): 1 h | Time at which peak decitabine plasma concentrations were attained ([3]; day 5 after IV treatment): 30 min | AUC(0-t) ([3]; Primary endpoint, paired, cycles 1 and 2): 865 ng·h/mL | AUC(0-t) ([3]; Sensitivity, paired, includes data excluded from primary endpoint): 870 ng·h/mL | AUC(0-t) ([3]; Sensitivity, unpaired): 866 ng·h/mL | Time plasma concentrations remained above the lower limit of quantification ([3]; in most patients): up to 4 hours | Grade ≥3 TEAE Anemia, % ([4]; Cycles 1 and 2): (32) % | Grade ≥3 TEAE Febrile neutropenia, % ([4]; Cycles 1 and 2): (7) % | Grade ≥3 TEAE Leukopenia, % ([4]; Cycles 1 and 2): (14) % | Grade ≥3 TEAE Neutropenia, % ([4]; Cycles 1 and 2): (29) % | Grade ≥3 TEAE Pneumonia, % ([4]; Cycles 1 and 2): (5) % | Grade ≥3 TEAE Thrombocytopenia, % ([4]; Cycles 1 and 2): (32) % | ≥1 Grade ≥3 TEAE regardless of relation to treatment, % ([4]; Cycles 1 and 2): (67) % | ≥1 TEAE regardless of relation to treatment, % ([4]; Cycles 1 and 2): 96% | TEAE Anemia, % ([4]; Cycles 1 and 2, any grade): (36) % | TEAE Constipation, % ([4]; Cycles 1 and 2, any grade): (20) % | TEAE Decreased appetite, % ([4]; Cycles 1 and 2, any grade): (5) % | TEAE Diarrhea, % ([4]; Cycles 1 and 2, any grade): (11) % | TEAE Dyspnea, % ([4]; Cycles 1 and 2, any grade): (10) % | TEAE Fatigue, % ([4]; Cycles 1 and 2, any grade): (17) % | TEAE Febrile neutropenia, % ([4]; Cycles 1 and 2, any grade): (7) % | TEAE Headache, % ([4]; Cycles 1 and 2, any grade): (14) % | TEAE Nausea, % ([4]; Cycles 1 and 2, any grade): (17) % | TEAE Neutropenia, % ([4]; Cycles 1 and 2, any grade): (34) % | TEAE Thrombocytopenia, % ([4]; Cycles 1 and 2, any grade): (39) % | ≥1 TEAE regardless of relation to treatment, % ([4]; Cycles 1 and 2, listed as IV Decitabine): (96) % | Treatment-related serious AE rate, recalculated ([4]; first 2 cycles, one AE reassigned to IV decitabine given in cycle 1): 4% | Patients reporting ≥1 treatment-related serious AE ([4]; first 2 treatment cycles): 3% | Treatment discontinuation due to an AE ([4]; first 2 treatment cycles): 1 patient | Deaths deemed related to study medication ([4]; of 11 fatal serious AEs, oral: sepsis and pneumonia, IV: septic shock, pneumonia): three | Median survival [5]: 14.0-19.4 months | Overall response rate [5]: 32% | Overall survival (OS) [6]: 10.1 months

Nc1ncn([C@@H]2O[C@H](CO)[C@@H](O)[C@H]2O)c(=O)n1 [azacitidine, 5-azacytidine]
Median time to leukemic transformation or death [7]: 21 months | Median survival [5]: 12.0-24.5 months | Overall response rate [5]: 44%-60%
